Entries after “also recorded” stand apart in the source; their conditions may differ.
How the values were obtained:
[1] = biological target: human endothelial NOS (heNOS) (Homo sapiens, UniProt P29474); experiment: IC50 determination, heNOS; type: biochemical; settings: for isoform selectivity heNOS/bNOS (in parentheses): ratio of IC50 heNOS to IC50 bNOS WT
Method: (§1) Enzyme activity for bsNOS and bsNOS I218V was measured using the bBidomain constructs, as described previously,^4,14 with some minor alterations. Reactions with bsNOS and bsNOS I218V were run for 8 min, whereas those with hiNOS and heNOS were run for 4 min, as this allowed for adequate signal before complete substrate depletion. hiNOS and heNOS reactions also had calmodulin added at 10× the protein concentration. Inhibitors were tested from 5 μM to 800 μM. IC50 values were calculated as previously described.^9

[2] = biological target: human inducible NOS (hiNOS) (Homo sapiens, UniProt P35228); experiment: IC50 determination, hiNOS; type: biochemical; settings: for isoform selectivity hiNOS/bNOS (in parentheses): ratio of IC50 hiNOS to IC50 bNOS WT
Method: as §1

bNOS WT (bsNOS) [3] = biological target: T1, bNOS WT (bsNOS) (Bacillus subtilis, UniProt O34453); experiment: Imidazole displacement assay (spectral binding, Ks), bNOS WT; parameters: made in house; host or cells: E. coli BL21 (DE3)
Method: (§2) The KS value for each ligand was then calculated from KS,app as previously described,^4,14 using the KD of imidazole to bsNOS, bsNOS I218V, hiNOS, and heNOS and normalized to L-Arg.
Target sequence in this assay (O34453 whole entry): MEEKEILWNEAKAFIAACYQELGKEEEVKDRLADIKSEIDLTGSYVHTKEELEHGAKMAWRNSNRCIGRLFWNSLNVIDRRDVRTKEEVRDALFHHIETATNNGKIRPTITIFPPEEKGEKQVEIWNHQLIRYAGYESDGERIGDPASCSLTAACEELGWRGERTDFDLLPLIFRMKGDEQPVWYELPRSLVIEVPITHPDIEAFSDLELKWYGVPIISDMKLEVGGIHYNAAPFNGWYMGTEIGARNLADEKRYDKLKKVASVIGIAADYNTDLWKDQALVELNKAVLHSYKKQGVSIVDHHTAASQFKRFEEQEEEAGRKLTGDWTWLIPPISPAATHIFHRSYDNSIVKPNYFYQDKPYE

bNOS (I218V) [4] = biological target: T2, bNOS (I218V) (Bacillus subtilis, UniProt O34453, I218V); experiment: Imidazole displacement assay (spectral binding, Ks), bNOS I218V mutant; parameters: made in house; host or cells: E. coli BL21 (DE3); settings: for decrease in inhibitor specificity between wild type (WT) and the I218V mutant (increase in KS): KS I218V versus KS WT
Method: as §2
Target sequence in this assay (O34453 whole entry I218V): as the sequence (O34453 whole entry) above, with I218V counted along it

bNOS WT (bsNOS) [5] = biological target: T1, bNOS WT (bsNOS); experiment: IC50 determination with bBidomain construct, bNOS WT; type: biochemical; parameters: YKuN (fusion partner); made in house; host or cells: E. coli BL21 (DE3)
Method: as §1
Target sequence in this assay (O34453 other isoform, or with tags, fused parts or gaps): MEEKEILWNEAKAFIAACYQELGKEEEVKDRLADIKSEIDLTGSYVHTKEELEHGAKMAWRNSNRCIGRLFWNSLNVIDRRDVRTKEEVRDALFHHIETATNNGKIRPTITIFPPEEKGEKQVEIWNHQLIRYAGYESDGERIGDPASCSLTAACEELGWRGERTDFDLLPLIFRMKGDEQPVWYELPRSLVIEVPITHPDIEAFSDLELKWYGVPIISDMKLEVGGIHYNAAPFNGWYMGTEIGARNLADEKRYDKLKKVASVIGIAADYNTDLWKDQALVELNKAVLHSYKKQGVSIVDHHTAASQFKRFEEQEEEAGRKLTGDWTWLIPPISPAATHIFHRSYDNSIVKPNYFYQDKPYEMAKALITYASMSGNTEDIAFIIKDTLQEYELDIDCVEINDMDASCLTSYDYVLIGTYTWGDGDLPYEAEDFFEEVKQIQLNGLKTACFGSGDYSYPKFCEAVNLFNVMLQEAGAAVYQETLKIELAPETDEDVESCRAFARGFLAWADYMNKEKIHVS

bNOS (I218V) [6] = biological target: T2, bNOS (I218V); experiment: IC50 determination with bBidomain construct, bNOS I218V; type: biochemical; parameters: YKuN (fusion partner); made in house; host or cells: E. coli BL21 (DE3)
Method: as §1
Target sequence in this assay (O34453 other isoform, or with tags, fused parts or gaps I218V): as the sequence (O34453 other isoform, or with tags, fused parts or gaps) above, with I218V counted along it

[7] = system: MRSA in infected macrophage cells; experiment: Macrophage MRSA killing assay; type: cell-based; settings: for MRSA killing activity in infected macrophage cells: FIG. 5; for MRSA killing activity compared with QJ13: FIG. 5B
Method: Bone marrow was isolated, red blood cells lysed with ACK buffer (Gibco), and plated on non-tissue culture treated dishes (Fisher) in DMEM media (Hyclone) supplemented with 2 mM L-glutamine (Corning), 100 U/mL pen-strep (Hyclone), 10% fetal bovine serum (OmegaScientific), and 10% cell conditioned media from CMG14-12 cells as a source of CSF. Macrophages were isolated after 6 days of differentiation and stored frozen in liquid nitrogen. One day prior to assay, macrophages were thawed and plated in flat-bottomed 96-well culture plates (VWR) at 50-70,000 cells per well in antibiotic-free DMEM media supplemented with 10% fetal bovine serum and L-glutamine.
Bacteria and inhibitors or vehicle control were added to each well. The plate was spun down for 5 min, 1500 rpm, 25° C. to bring bacteria in contact with the macrophages. The plate was incubated for 1 h at 37° C. with 5% CO2. The plate was spun down for 5 min, 1500 rpm, 25° C. The supernatant was pipetted off and discarded. Cells were lysed with 2% Triton-X 100 for 15 min. MTT in LB (100 μL of 1 mg/mL) was added to each well and plates were incubated for 2 h at 37° C. MTT was solubilized in DMSO, and plates were read at 540 nm. Killing was normalized to untreated bacteria. Empty wells with known bacteria quantities were used as a positive control.

human nNOS (hnNOS) = biological target: T3, human nNOS (hnNOS) (Homo sapiens, UniProt P29475); experiment: Hemoglobin NO capture assay, hnNOS; type: biochemical; settings: from IC50 by Cheng-Prusoff, 10 μM L-Arg
T3 construct: made in house; host or cells: Escherichia coli
Method: (§3) The NOS inhibitory activity of the compounds was measured by the hemoglobin (Hb) NO capture assay following a protocol described previously.^1-2 The production of NO was monitored by a rapid oxidation of oxyhemoglobin (oxyHb) to methemoglobin (metHb) by NO.^1 Purified recombinant NOSs, human nNOS (hnNOS), and human eNOS (heNOS),^3 are used in all activity assays. They were expressed in Escherichia coli and purified as previously reported. In brief, the assay was performed in 100 mM HEPES (4-(2-hydroxyethyl)-1-piperazine-ethanesulfonic acid) buffer with 10% glycerol (pH 7.4-7.5) at 37° C. in the presence of 10 μM L-Arg, 10 μM H4B, 100 μM NADPH, 0.83 mM CaCl2), 320 units/mL calmodulin, and 3 μM human oxyhemoglobin. A concentration of L-Arg of 10 μM was used as it is sufficient not to cause NOS uncoupling and is close to the Km values of all three NOS isoforms where competitive inhibitors can be detected effectively. The assay was performed in 96-well plates using a Biotek Gen5 microplate reader. The NOS enzymes and hemoglobin were dispensed automatically by the plate reader. NO production was kinetically monitored at 401 nm for 6 min. The inhibition constants (Ki) for all NOSs were calculated from the IC50 values of the dose-response curves using the Cheng-Prusoff equation,^4
(§4) [formula] where Km is the Michaelis constant. […] The calculated standard deviations from dose-response curves of the assays were less than 10% with all NOSs.

human eNOS (heNOS) = biological target: T4, human eNOS (heNOS) (Homo sapiens, UniProt P29474); experiment: Hemoglobin NO capture assay, heNOS; type: biochemical; settings: for Ki: from IC50 by Cheng-Prusoff, 10 μM L-Arg; for eNOS/nNOS selectivity: ratio of Ki heNOS to Ki hnNOS
T4 construct: made in house; host or cells: Escherichia coli
Method: as §3, §4

hiNOS = hiNOS (Homo sapiens, UniProt P35228); experiment: Griess assay IC50, hiNOS; type: biochemical; settings: IC50 value from Griess assay

Structure (SMILES)	IC50 [1] [µM]	IC50 [2] [µM]	isoform selectivity hiNOS/bNOS (in parentheses) [2]	Kd (bNOS WT (bsNOS) [3]) [µM]	Kd (bNOS (I218V) [4]) [µM]	IC50 (bNOS WT (bsNOS) [5]) [µM]	IC50 (bNOS (I218V) [6]) [µM]	isoform selectivity heNOS/bNOS (in parentheses) [1]	MRSA killing activity in infected macrophage cells [7]	MRSA killing activity compared with QJ13 [7]	decrease in inhibitor specificity between wild type (WT) and the I218V mutant (increase in KS) (bNOS (I218V) [4]) [fold]	MRSA killing ([7]; at ~50 μM concentration)	Ki (human nNOS (hnNOS)) [µM]	Ki (human eNOS (heNOS)) [µM]	eNOS/nNOS selectivity (human eNOS (heNOS))	IC50 (hiNOS) [µM]
Nc1cccc(CCc2cccc(OCc3ccc4ccc(N)nc4c3)c2)n1 [Compound 3, 7-((3-(2-(6-aminopyridin-2-yl)ethyl)phenoxy)methyl)quinolin-2-amine]	> 500	435	19	29.9	23.5	23.1	31.2	–	–	–	–	–	–	–	–	–
Nc1ccc2ccc(COc3cccc(CNCc4ccccn4)c3)cc2n1 [Compound 4, 7-((3-(((pyridin-2-ylmethyl)amino)methyl)phenoxy)methyl)quinolin-2-amine]	475	143	4	32	58.9	40	86	12	–	–	–	–	–	–	–	–
Nc1cccc(CNCc2cccc(OCc3ccc4ccc(N)nc4c3)c2)n1 [Compound 5, 7-((3-((((6-aminopyridin-2-yl)methyl)amino)methyl)phenoxy)methyl)quinolin-2-amine]	307	318	11	2.3	40	28	114	11	exhibited killing activity; also recorded: showed efficacy only at higher concentrations	superior killing activity	17	–	–	–	–	–
Nc1ccc2ccc(COc3cccc(CNCCc4ccccn4)c3)cc2n1 [Compound 6, 7-((3-(((2-(pyridin-2-yl)ethyl)amino)methyl)phenoxy)methyl)quinolin-2-amine]	–	396	18	22.6	31.9	21.6	63.8	–	–	–	–	–	–	–	–	–
Nc1cccc(CCCCNCc2cccc(OCc3ccc4ccc(N)nc4c3)c2)n1 [Compound 8, 7-((3-(((4-(6-aminopyridin-2-yl)butyl)amino)methyl)phenoxy)methyl)quinolin-2-amine]	126	24	4	6.3	6.3	6.1	9.2	21	–	–	–	–	–	–	–	–
Nc1cccc(CNCCOc2cccc(OCc3ccc4ccc(N)nc4c3)c2)n1 [Compound 9, 7-((3-(2-(((6-aminopyridin-2-yl)methyl)amino)ethoxy)phenoxy)methyl)quinolin-2-amine]	493	350	13	2.25	24.6	26.5	228	19	exhibited killing activity	superior MRSA killing activity	11	about 50%	–	–	–	–
COC(=O)[C@@H](N)CCCNC(=N)N[N+](=O)[O-] [L-NAME, reference compound]	–	–	–	–	–	–	–	–	no effect	–	–	–	–	–	–	–
Nc1ccc2ccc(COc3cccc(CNCc4ccccn4)c3)cc2n1 [PW-I-101]	–	–	–	–	–	–	–	–	–	–	–	–	0.022	19.8	900	143
Nc1cccc(CCCCNCc2cccc(OCc3ccc4ccc(N)nc4c3)c2)n1 [PW-I-103]	–	–	–	–	–	–	–	–	–	–	–	–	0.038	1.96	51	24
Nc1cccc(CNCCOc2cccc(OCc3cccc(N)n3)c2)n1 [PW-III-25]	–	–	–	–	–	–	–	–	–	–	–	–	3.3	340	102	–
